# Reference: patent publication US9695155B2, “Herbicidal substituted pyrimidinyloxy benzene compounds” (E. I. DU PONT DE NEMOURS AND COMPANY, priority 2013, dated 2017)
# Columns and labels:
# [1] = test system: wild oat; assay: Test D preemergence; format: in vivo, Avena fatua
# Summary of the method: (§1)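 Plant response is a visual score from 0 (no effect) to 100 (complete control) relative to controls. Plants were kept in a controlled growth environment for 7 to 21 days after spraying. Preemergence treatments went onto silt loam soil; postemergence ones onto 1- to 4-leaf seedlings.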
# [2] = test system: oilseed rape; assay: Test D postemergence; format: in vivo, Brassica napus
# Description: (§2) Seeds of plant species selected from bluegrass (annual bluegrass, Poa annua), blackgrass (Alopecurus myosuroides), canarygrass (littleseed canarygrass, Phalaris minor), chickweed (common chickweed, Stellaria media), galium (catchweed bedstraw, Galium aparine), bromegrass, downy (downy bromegrass, Bromus tectorum), field poppy (Papaver rhoeas), field violet (Viola arvensis), green foxtail (Setaria viridis), deadnettle (henbit deadnettle, Lamium amplexicaule), Italian ryegrass (Lolium multiflorum), kochia (Kochia scoparia), lambsquarters (Chenopodium album), oilseed rape (Brassica napus), pigweed (Amaranthus retroflexus), chamomile (scentless chamomile, Matricaria inodora), Russian thistle (Salsola kali), speedwell (bird's-eye speedwell, Veronica persica), spring barley (Hordeum vulgare), spring wheat (Triticum aestivum), wild buckwheat (Polygonum convolvulus), wild mustard (Sinapis arvensis), wild oat (Avena fatua), wild radish (Raphanus raphanistrum), windgrass (Apera spica-venti), winter barley (Hordeum vulgare), and winter wheat (Triticum aestivum) were planted into a silt loam soil and treated preemergence with test chemicals formulated in a non-phytotoxic solvent mixture which included a surfactant.
# (§3) At the same time, these species were planted in pots containing Redi-Earth® planting medium (Scotts Company, 14111 Scottslawn Road, Marysville, Ohio 43041) comprising spaghnum peat moss, vermiculite, wetting agent and starter nutrients and treated with postemergence applications of the test chemicals formulated in the same manner. Plants ranged in height from 2 to 18 cm (1- to 4-leaf stage). Treated plants and controls were maintained in a controlled growth environment for 7 to 21 days after which time all species were compared to controls and visually evaluated. Plant response ratings, summarized in Table D, are based on a scale of 0 to 100 where 0 is no effect and 100 is complete control. A dash (-) response means no test result.
# [3] = test system: bluegrass; assay: Test D preemergence; format: in vivo, Poa annua
# Description: as §2, §3
# [4] = test system: windgrass; assay: Test D postemergence; format: in vivo, Apera spica-venti
# Summary of the method: as §1
# [5] = test system: wild buckwheat; assay: Test D preemergence; format: in vivo, Polygonum convolvulus
# Summary of the method: as §1
# [6] = test system: oilseed rape; assay: Test D preemergence; format: in vivo, Brassica napus
# Description: as §2, §3
# [7] = test system: canarygrass; assay: Test D postemergence; format: in vivo, Phalaris minor
# Description: as §2, §3
# [8] = test system: bromegrass, downy; assay: Test D preemergence; format: in vivo, Bromus tectorum
# Summary of the method: as §1
# [9] = test system: field violet; assay: Test D preemergence; format: in vivo, Viola arvensis
# Summary of the method: as §1
# [10] = test system: large (Lg) crabgrass; assay: Test F preemergence; format: in vivo, Digitaria sanguinalis; settings: 21 days, scale 0 to 100
# Description: (§4) Seeds of plant species selected from bermudagrass (Cynodon dactylon), surinam grass (Brachiaria decumbens), large (Lg) crabgrass (Digitaria sanguinalis), crabgrass, naked (naked crabgrass, Digitaria nuda), foxtail, green (green foxtail, Setaria viridis), johnsongrass (Sorghum halepense), kochia (Kochia scoparia), morningglory (pitted morningglory, Ipomoea lacunosa), nutsedge, purple (purple nutsedge, Cyperus rotundus), ragweed (common ragweed, Ambrosia elatior), mustard, black (black mustard, Brassica nigra), guineagrass (Panicum maximum), dallisgrass (Paspalum dilatatum), barnyardgrass (Echinochloa crus-galli), sandbur (southern sandbur, Cenchrus echinatus), sowthistle (common sowthistle, Sonchus oleraceous), Italian ryegrass (Lolium multiflorum), signalgrass (broadleaf signalgrass, Brachiaria platyphylla), dayflower (Virginia (VA) dayflower, Commelina virginica), bluegrass (annual bluegrass, Poa annua), quackgrass (Elytrigia repens), mallow (common mallow, Malva sylvestris), buckwheat, wild (wild buckwheat, Polygonum convolvulus), leafy spurge (Euphorbia esula), chickweed (common chickweed, Stellaria media), wild poinsettia (Euphorbia heterophylla), and pigweed (Amaranthus retroflexus) were planted into a blend of loam soil and sand and treated preemergence with test chemicals formulated in a non-phytotoxic solvent mixture which included a surfactant.
# (§5) Treated plants and controls were maintained in a greenhouse for 21 days, after which time all species were compared to controls and visually evaluated. Plant response ratings, summarized in Table F, are based on a scale of 0 to 100 where 0 is no effect and 100 is complete control. A dash (-) response means no test result.
# [11] = test system: signalgrass; assay: Test F preemergence; format: in vivo, Brachiaria platyphylla; settings: 21 days, scale 0 to 100
# Description: as §4, §5
# [12] = test system: pigweed; assay: Test F preemergence; format: in vivo, Amaranthus retroflexus; settings: 21 days, scale 0 to 100
# Description: as §4, §5
# [13] = 16 g ai/ha, scale 0 (no effect) to 100 (complete control)
# [14] = 31 g ai/ha, scale 0 to 100 (0 no effect, 100 complete control)
# [15] = 62 g ai/ha, scale 0 to 100 (0 no effect, 100 complete control)
# [16] = 125 g ai/ha, scale 0 to 100 (0 no effect, 100 complete control)
structure (smiles),measurement,setting,value
FCc1cccc(Oc2ncc(Cl)cn2)c1-n1cc(I)cn1 [Compound 245],"Plant response rating, Oat, Wild",[1]; [13],0
same,"Plant response rating, Oat, Wild","[1]; 31 g ai/ha, scale 0-100",5
same,"Plant response rating, Oat, Wild","[1]; 62 g ai/ha, scale 0-100",20
same,"Plant response rating, Oat, Wild","[1]; 125 g ai/ha, scale 0-100",15
same,"Plant response rating, Oilseed Rape","[2]; 16 g ai/ha, scale 0-100",30
same,"Plant response rating, Oilseed Rape",[2]; [14],45
same,"Plant response rating, Oilseed Rape",[2]; [15],60
same,"Plant response rating, Oilseed Rape",[2]; [16],75
same,"Plant response rating, Bluegrass",[3]; [13],0
same,"Plant response rating, Bluegrass","[3]; 31 g ai/ha, scale 0-100",0
same,"Plant response rating, Bluegrass","[3]; 62 g ai/ha, scale 0-100",0
same,"Plant response rating, Bluegrass","[3]; 125 g ai/ha, scale 0-100",20
same,"Plant response rating, Windgrass","[4]; 16 g ai/ha, scale 0-100",10
same,"Plant response rating, Windgrass",[4]; [14],15
same,"Plant response rating, Windgrass",[4]; [15],15
same,"Plant response rating, Windgrass",[4]; [16],25
same,"Plant response rating, Buckwheat, Wild",[5]; [13],25
same,"Plant response rating, Buckwheat, Wild","[5]; 31 g ai/ha, scale 0-100",0
same,"Plant response rating, Buckwheat, Wild","[5]; 62 g ai/ha, scale 0-100",25
same,"Plant response rating, Buckwheat, Wild","[5]; 125 g ai/ha, scale 0-100",35
same,"Plant response rating, Oilseed Rape",[6]; [13],0
same,"Plant response rating, Oilseed Rape","[6]; 31 g ai/ha, scale 0-100",0
same,"Plant response rating, Oilseed Rape","[6]; 62 g ai/ha, scale 0-100",30
same,"Plant response rating, Oilseed Rape","[6]; 125 g ai/ha, scale 0-100",100
same,"Plant response rating, Canarygrass","[7]; 16 g ai/ha, scale 0-100",0
same,"Plant response rating, Canarygrass",[7]; [14],20
same,"Plant response rating, Canarygrass",[7]; [15],25
same,"Plant response rating, Canarygrass",[7]; [16],35
same,"Plant response rating, Bromegrass, Downy",[8]; [13],0
same,"Plant response rating, Bromegrass, Downy","[8]; 31 g ai/ha, scale 0-100",0
same,"Plant response rating, Bromegrass, Downy","[8]; 62 g ai/ha, scale 0-100",35
same,"Plant response rating, Bromegrass, Downy","[8]; 125 g ai/ha, scale 0-100",40
same,"Plant response rating, Field Violet",[9]; [13],55
same,"Plant response rating, Field Violet","[9]; 31 g ai/ha, scale 0-100",95
same,"Plant response rating, Field Violet","[9]; 62 g ai/ha, scale 0-100",100
same,"Plant response rating, Field Violet","[9]; 125 g ai/ha, scale 0-100",100
N#Cc1cccc(Oc2ncc(Cl)cn2)c1-n1cc(OC(F)F)cn1 [Compound 97],"Plant response rating, Crabgrass, Large",[10]; 16 g ai/ha,98
same,"Plant response rating, Crabgrass, Large",[10]; 31 g ai/ha,100
same,"Plant response rating, Crabgrass, Large",[10]; 62 g ai/ha,100
same,"Plant response rating, Crabgrass, Large",[10]; 125 g ai/ha,100
same,"Plant response rating, Crabgrass, Large",[10]; 250 g ai/ha,100
same,"Plant response rating, Signalgrass",[11]; 16 g ai/ha,25
same,"Plant response rating, Signalgrass",[11]; 31 g ai/ha,90
same,"Plant response rating, Signalgrass",[11]; 62 g ai/ha,85
same,"Plant response rating, Signalgrass",[11]; 125 g ai/ha,100
same,"Plant response rating, Signalgrass",[11]; 250 g ai/ha,100
same,"Plant response rating, Pigweed",[12]; 16 g ai/ha,100
same,"Plant response rating, Pigweed",[12]; 31 g ai/ha,100
same,"Plant response rating, Pigweed",[12]; 62 g ai/ha,100
same,"Plant response rating, Pigweed",[12]; 125 g ai/ha,100
same,"Plant response rating, Pigweed",[12]; 250 g ai/ha,100
"N#Cc1cccc(Oc2ncc(F)cn2)c1-n1cc(C(F)(F)F)cn1 [Compound 79, 3-[(5-fluoro-2-pyrimidinyl)oxy]-2-[4-(trifluoromethyl)-1H-pyrazol-1-yl]benzonitrile]","Plant response rating, Crabgrass, Large",[10]; 16 g ai/ha,98
same,"Plant response rating, Crabgrass, Large",[10]; 31 g ai/ha,100
same,"Plant response rating, Crabgrass, Large",[10]; 62 g ai/ha,100
same,"Plant response rating, Crabgrass, Large",[10]; 125 g ai/ha,100
same,"Plant response rating, Crabgrass, Large",[10]; 250 g ai/ha,100
same,"Plant response rating, Signalgrass",[11]; 16 g ai/ha,98
same,"Plant response rating, Signalgrass",[11]; 31 g ai/ha,100
same,"Plant response rating, Signalgrass",[11]; 62 g ai/ha,100
same,"Plant response rating, Signalgrass",[11]; 125 g ai/ha,100
same,"Plant response rating, Signalgrass",[11]; 250 g ai/ha,100
same,"Plant response rating, Pigweed",[12]; 16 g ai/ha,100
same,"Plant response rating, Pigweed",[12]; 31 g ai/ha,100
same,"Plant response rating, Pigweed",[12]; 62 g ai/ha,100
same,"Plant response rating, Pigweed",[12]; 125 g ai/ha,100
same,"Plant response rating, Pigweed",[12]; 250 g ai/ha,100
